Results taken from US20080300298A1, “Honokiol Derivates For the Treatment of Proliferative Disorders” (priority 2005, published 2008).

Assays:
BMSCs = type: cell-based, human
Method: MNCs in BM specimens were also used to establish long-term bone marrow stromal cell (BMSC) cultures, as described in, for example, Uchiyama et al Blood. 1993; 82:3712-3720 and Hideshmia et al Oncogene. 2001; 20:4519-4527.
Reagents: Honokiol (HNK; Calbiochem, San Diego, Calif.) was dissolved in ethanol at 20 mg/ml stock solution. Recombinant human interleukin-6 (IL-6), vascular endothelial growth factor (VEGF) and insulin-like growth factor-1 (IGF-1) (R&D Systems, Minneapolis, Minn.) were reconstituted with sterile PBS containing 0.1% FBS (IL-6 and VEGF) and 10 mM of acetic acid containing 0.1% FBS (IGF-1), respectively. Pan-caspase inhibitor z-VAD-fmk (Bachem, Bubendorf, Switzerland) was dissolved in methanol. These reagents were stored at −20° C. and diluted by media just before the use. Doxorubicin (Sigma, St Louis, Mo.) was dissolved in sterile water at the concentration of 3.45 mM. As2O3 (5 mM in PBS) was provided by Cell Therapeutics Inc. (Seattle, Wash.). […] Absorbance readings at a wavelength of 450 nm were taken on a spectrophotometer (Molecular Devices Corp., Sunnyvale, Calif.).
The effect of HNK on MM cells in the presence of exogenous IL-6 and IGF-1, as well as BMSCs was evaluated. […] DNA synthesis was determined by measuring [^3H]-thymidine incorporation during the last 8 h of 48 h cultures. […]

HUVEC = assay: direct toxicity against HUVEC (colorimetric assay); type: cell-based, human; details: 8 ug/ml
[1] = system: glioblastoma multiforme cell lines, U343 and T98G; assay: MTT proliferation assay; type: cell-based; details: 10-70 μM, 24 hours
Method: (§1) Cell lines: All cell lines were obtained from American Type Culture Collection. The breast cancer cell lines used: MCF-7 and BT-474 cells were grown in DMEM medium containing 10% FCS; MDA-MB-231, SK-BR-3, MDA-MB-436 and T47-D cells were grown in RPMI medium containing 10% FCS. The glioblastoma multiforme cell lines (U343 and T98G) were maintained in DMEM modified medium containing 10% FCS.
(§2) 3-(4,5-dimethylthiazol-2-yl)-2,5-diphenyltetrazolium bromide (MTT) proliferation assays: 3×10^3 cells/well were plated in 96-well plates, cultured in the appropriate culture media containing 10% FCS, and treated with either control vehicle or various concentrations of HNK, alone or with a secondary drug, as indicated. All secondary drugs were freshly diluted in growth media and immediately added to cells along with the HNK. After 24 hours of incubation at 37° C., 5% CO2, the cells were cultured for four hours with 10% MTT reagent (5 mg/ml; Sigma-Aldrich, St. Louis, Mo.). The medium was aspirated, and the cells were dissolved by dimethyl sulfoxide (DMSO). Absorbance of the formazan product was measured by an enzyme-linked immunosorbent assay reader (Macintosh).
(§3) HNK inhibits growth of breast cancer cells. Breast cancer cells were treated with different concentrations of HNK for 24 hours, and MTT assays were conducted to assess viability. The selected cell lines have different phenotypes and different expression patterns of the estrogen receptor (ER), Her2 and p53, and thus represent various subclasses of breast cancer. […] Similar analyses were also conducted for two glioblastoma multiforme cell lines, U343 and T98G. Over the same dose-range (10-70 μM), both cell lines were resistant to HNK (FIGS. 34 A, B).

BT-474 cells = assay: MTT proliferation assay; type: cell-based; details: Homo sapiens, BT-474, 24 h, read-out: concentration that reduced viability by 50% (LC50)
Method: as §1, §2, §3

SKBR-3 cell = assay: MTT proliferation assay; type: cell-based; details: Homo sapiens, SK-BR-3, 24 h, read-out: concentration that reduced viability by 50% (LC50)
Method: as §1, §2, §3

`C=CCc1ccc(O)c(-c2ccc(O)c(CC=C)c2)c1` [HNK, Honokiol] was tested, and the “viability of BMSCs” value (BMSCs) was “did not affect the viability of BMSCs”, the “viability of HUVEC cells” value (HUVEC) was “did not affect the viability of HUVEC cells” and the “viability of glioblastoma multiforme cell lines” value [1] was “resistant”. The CC50 (BT-474 cells) was 50 µM and the CC50 (SKBR-3 cell) was 29 µM.
